The values below come from patent US20030165582A1, “Preparations that contain an extract of the plant pistia stratiotes” (priority 2000, published 2003).

The assay concerns human adipocytes. The assay is described as follows: Lipolytic activity: glycerol released from isolated adipocytes. Format: cell-based. To be noted: 90 minutes at 37° C., reference value=0. Here is the method:
Method: The adipocytes were isolated from human subcutaneous tissue by the standard Rodbell method (J. of Biolog. Chem.; 1964, 239, 375-380). The extract of Examples 1 to 3 each with two extracts (batches A and B) and the comparison substances were dissolved in a Hanks reference medium with a particular salt concentration (Cell and Tissue Culture, Ed: J. Paul, Churchill and Livingstone, 1975, page 484) and then contacted with the isolated adipocytes for 90 minutes at 37° C. Two to six adipocyte preparations were investigated. The percentage increase in glycerol released was spectrophotometrically determined in the supernatant of the medium by the Carpéné method (J. de Pharmacologie; 1981; 12;219-224).

Take `Cn1c(=O)c2[nH]cnc2n(C)c1=O` [Theophylline]: the “% Increase in glycerol released” value (1.0 mM) is recorded as 187%. `CC(C)NCC(O)c1ccc(O)c(O)c1` (centres unmarked) [Isoprenalin]: the “% Increase in glycerol released” value (0.1 μM) is reported as 129%.
